The values below come from publication PMC10671498, “Antiproliferative and Cytotoxic Properties of Propynoyl Betulin Derivatives against Human Ovarian Cancer Cells: In Vitro Studies” (International Journal of Molecular Sciences, 2023).

The structures appear in SMILES notation. pIC50: −log10 of the molar value.

The test system of series [1] is SK-OV-3 cells. The series is described as follows: SRB cell proliferation assay, SK-OV-3. Type of series: cell-based, human. The following applies: for pIC50: Homo sapiens. As to the method: This study used ovarian cancer cell lines, which are part of the panel of cell lines used as part of the NCI-60 Human Cell Lines Screen program, characterized by overexpression of the c-erbB2/neu (HER2) receptor [62, 63]. The human ovarian cancer cell lines (SK-OV-3 and OVCAR-3) were purchased from the American Type Culture Collection (ATCC®, Manassas, Virginia, USA). SK-OV-3 cells (ATCC No. HTB-77™) were cultured in McCoy’s 5A medium containing D-glucose (3 g/L), L-glutamine (0.219 g/L), and sodium bicarbonate (2.2 g/L) supplemented with 10% fetal bovine serum, 10 mM HEPES (pH 7.3–7.5), 100 U/mL penicillin, and 100 μg/mL streptomycin (all from Sigma Aldrich).
(§1) Betulin 1 and its derivatives were dissolved in dimethyl sulfoxide (DMSO; Sigma Aldrich) as a 15 mM stock solution. Working solutions were prepared through the dilution of stock solutions with culture medium. The final DMSO concentration in culture media was adjusted to 0.2%. The effect of tested compounds on the proliferation of SK-OV-3 and OVCAR-3 cells was measured using the In Vitro Toxicology Assay Kit, Sulforhodamine B based (Sigma Aldrich). Cells were seeded in 96-well plates (Greiner Bio-One, Kremsmünster, Austria) at an initial density of 3 × 10^3 cells per well in 200 µL of culture medium. After 24 h of incubation, betulin 1 and its derivatives at a concentration range of 0.1 μM to 30 μM were added to the wells. Control cultures were treated with vehicle alone (0.2% DMSO). The incubation periods for cells with test compounds were 1 day, 3 days, and 5 days. After appropriate incubation periods, culture media were removed, and cells were fixed in 10% trichloroacetic acid solution for 60 min at 4 °C. After fixation, the TCA solution was removed, and the plates were washed three times with deionized water (300 μL/well) and dried. At the next step, cells were stained with 0.4% sulforhodamine B for 30 min. The excess dye was removed by washing three times with 1% (vol/vol) acetic acid. The protein-bound dye was dissolved in 200 μL 10 mM Tris base solution. Absorbance was measured at 570 nm and 690 nm (reference wavelength) using the MRX Revelation plate reader (Dynex Technologies, Chantilly, VA, USA).
(§2) GraphPad Prism 10.0.2 (GraphPad Software Inc., San Diego, CA, USA) software was used for calculations and the statistical analysis of the IC50 values (Table 1). IC50 was determined by using the “nonlinear regression” mode, and the “log(inhibitor) vs. normalised response—Variable slope” equation was chosen in GraphPad Prism software for calculations. The obtained data were normalized to run from 100% down to 0%, and logarithms of concentration were used. Graphs (Figure 2, Figure 3, Figure 4, Figure 5 and Figure 8, and Supplementary Figure S1) were also prepared using this software. In the case of the lack of normal distribution or homogeneity of variances, the remaining results were analyzed using a non-parametric Kruskal–Wallis test with multiple comparisons. Post hoc analysis was performed with the non-parametric equivalent of Tukey’s test. A p value of <0.05 was considered statistically significant. Otherwise, a one-way ANOVA followed by a Tukey’s post hoc test was applied. t-tests was used to perform pairwise comparisons between group means. Analysis was performed using Statistica 13.1 software (StatSoft, Tulsa, OK, USA).

Series [2] has as its system OVCAR-3 cells. The series is described as follows: SRB cell proliferation assay, OVCAR-3. Particulars: for pIC50: Homo sapiens. It is filed as cell-based, human. As to the method:
OVCAR-3 cells (ATCC No. HTB-161™) were cultured in RPMI-1640 medium containing HEPES buffer (2.383 g/L), sodium bicarbonate (1.5 g/L), sodium pyruvate (0.11 g/L) supplemented with 20% fetal bovine serum, 10 µg/mL bovine insulin, 100 U/mL penicillin, and 100 μg/mL streptomycin (all from Sigma Aldrich).
as §1, §2

Series [3] concerns 18Co normal myofibroblasts. As to the kind of experiment: SRB cell proliferation assay, 18Co normal myofibroblasts. It is filed as cell-based. As to the method: Next, 18Co cells (ATCC No. CRL-1459™) were cultured in MEM medium containing HEPES buffer, 10% fetal bovine serum, 100 U/mL penicillin, and 100 μg/mL streptomycin (all from Sigma Aldrich).
as §1, §2

The test system of series [4] is SK-OV-3 cells. As to the kind of experiment: LDH release assay, SK-OV-3. Particulars: SK-OV-3, 24 h, all concentrations (3, 10, 30 μM). Type of series: cell-based, human. As to the method:
(§3) In order to evaluate the cytotoxic effect, the release of LDH into the culture medium using the In Vitro Toxicology Assay Kit, Lactic Dehydrogenase Based (TOX7; Sigma Aldrich) was assessed. SK-OV-3 and OVCAR-3 cells were plated and cultured in 96-well plates (Greiner Bio-One) at the initial density of 5 × 10^3 cells per well in 100 µL of culture medium. The density of the cells was determined in the same manner as in the SRB assay. After 24 h, the media were replaced with the working solutions, which contained appropriate test compounds at concentrations of 3 μM, 10 μM, 30 μM, and control medium (0.2% DMSO). Cells were exposed to the test substances for 24 h. The background control comprised wells without cells with only control medium. To determine the maximal LDH release (high control), half of the control cultures were treated with lysis buffer. Wells with untreated cells were used as the low control of the assay. LDH activity in media was assessed according to the manufacturer’s protocol. The absorbance was measured at wavelengths of 490 nm and 690 nm (background), and the percentage of released enzyme was calculated for cells growing in the presence of compounds according to the formula:Cytotoxicity [%] = [(AT − AL)/(AH − AL)] × 100 where AT is the absorbance of treated wells; AL is low control; and AH is high control (maximal LDH release).
(§4) Cytotoxicity was expressed as a percentage of the released LDH calculated according to the difference between the absorbance of the treated and low control wells divided by the difference between the absorbance of the high control and low control wells.
Background: LDH leaks from cells whose membrane has failed.

Series [5] has as its system OVCAR-3 cells. The series is described as follows: LDH release assay, OVCAR-3. Particulars: OVCAR-3, 24 h, all concentrations (3, 10, 30 μM). Type of series: cell-based, human. How it is done: as §3, §4
A further series relates to A549 cells. More on the design: method as in PMID 30947097. Particulars: cited from earlier work.
For the next series, the system named is DU145 cells. Also on record: method as in PMID 30947097. The following applies: cited from earlier work.
The test system of a further series is Hs294T cells. More on the design: method as in PMID 30947097. The following applies: cited from earlier work.
The subject of a further series is MV-4-11 cells. More on the design: method as in PMID 30947097. The following applies: cited from earlier work.
A further series concerns CCRF/CEM cells. More on the design: method as in PMID 30947097. Particulars: cited from earlier work.
The subject of the next series is P388 cells. Also on record: method as in PMID 30947097. Particulars: cited from earlier work.

One may read the pIC50 as the negative decadic logarithm of the IC50, by convention in mol/L.

Take `C#CC(=O)OC[C@]12CC[C@@H](C(=C)C)C1C1CCC3[C@@]4(C)CC[C@H](OP(=O)(OCC)OCC)C(C)(C)C4CC[C@@]3(C)[C@]1(C)CC2` (stereo partly shown) [Compound 3, 3-O-diethoxyphosphorylbetulin-28-O-propynoylbetulin]: the pIC50 in the series with SK-OV-3 cells [1] (SK-OV-3, 72 h) was 6.54; in the series on SK-OV-3 cells [1] (SK-OV-3, 120 h) it was 6.47; in the series with OVCAR-3 cells [2] (OVCAR-3, 72 h), 6.05; in the series on OVCAR-3 cells [2] (OVCAR-3, 120 h), 6.31; in [3] (72 h) it was 4.91. Besides, the “concentration at which antiproliferative activity (decrease in the number of cells) was evident” value in the series on SK-OV-3 cells [1] (SK-OV-3, SRB assay, 0.1–30 µM) was 1 µM; in the series on OVCAR-3 cells [2] (OVCAR-3, SRB assay, 0.1–30 µM), 1 µM. In series [3] (18Co, 5 days treatment, Neg: negative in the concentration used), the IC50 result was “Neg”. Also, the “cytotoxicity (released LDH)” value with SK-OV-3 cells [4] is “strong cytotoxic effect”; with OVCAR-3 cells [5] it was “strongest cytotoxicity”. In addition, the tumor growth inhibition result in the series on A549 cells, with DU145 cells, with Hs294T cells, in the series with MV-4-11 cells, in the series on CCRF/CEM cells and with P388 cells was “Significant tumor growth inhibition” throughout.
